Measurements as given in patent US12297203B2, “Pyrrolopyrimidine ITK inhibitors” (ACLARIS THERAPEUTICS, INC., priority 2018, dated 2025).
Where two headings read alike, the source gives them in different places.

Legend:
[1] = test system: JAK1/3 phosphorylation of its substrate, STAT5, at Y694; assay: JAK1/3 target modulation assay (IL-2 stimulated STAT5 Y694 phosphorylation in PBMC); type: cell-based; conditions: Primary human peripheral blood mononuclear cells, IL-2 25 ng/mL, read-out: IL2-STAT5 Inh. IC50
Description: Target modulation was based upon the ability of a compound to inhibit JAK1/3 phosphorylation of its substrate, STAT5, at Y694. Primary human peripheral blood mononuclear cells were plated in V-bottom 96 well plates at 200,000 cells/well in 120 μL medium (RPMI-1640 with 10% fetal bovine serum, 10 mM HEPES buffer, 12.2 mM 2-mercaptoethanol, and supplemented with glutamine/penicillin/streptomycin). Compounds were added as 15 μL of 10× working stock solutions in medium with 1% DMSO (or medium with 1% DMSO for controls) and placed in a 37° C. incubator with gentle shaking for 1 hour. Stimulation was carried out using recombinant human IL-2 (R&D Systems #202-IL-050) to activate JAK1/3. IL-2 stock solution was diluted in media to 250 ng/mL and was added rapidly to all compound containing and stimulation only wells at 15 μL/well (final concentration=25 ng/mL). Wells designated ‘unstimulated’ received 15 μL of media only. The plate was placed back in a 37° C. incubator with gentle shaking for 5 minutes. After stimulation, the plates were immediately sealed with a plate seal, and cells pelleted at 400× g for 5 minutes. Media was removed using a multichannel aspirator, and 75 μL of cold Tris lysis buffer (MSD #R60TX-3) plus 1× Protease Inhibitor Solution (MSD #R70AA-1), 1× Phosphatase Inhibitor I (MSD #R70AA-1), and 1× Phosphatase Inhibitor II (MSD #R70AA-1) was added per well. Cells were incubated at 4° C. with gentle shaking for at least 30 minutes to allow for complete lysis. The plates were removed from 4° C., and 25 μL of lysate from each well was added to the corresponding well on the MSD plate. Samples were analyzed by either an MSD multiplex kit for Phospho-STAT5a,b/Total-STAT5a,b (MSD #K15163D) or an MSD single-plex kit for Phospho-STAT5a,b (MSD #K150IGD). The protocols for the respective kits were followed, and the plates were read on the MSD SECTOR S 600.

ITK = ITK (Homo sapiens (Human), UniProt Q08881); assay: ITK inhibitor binding potency (LanthaScreen competitive binding assay); conditions: read-out: ITK Inh. IC50
Sequence of ITK (Q08881 whole entry): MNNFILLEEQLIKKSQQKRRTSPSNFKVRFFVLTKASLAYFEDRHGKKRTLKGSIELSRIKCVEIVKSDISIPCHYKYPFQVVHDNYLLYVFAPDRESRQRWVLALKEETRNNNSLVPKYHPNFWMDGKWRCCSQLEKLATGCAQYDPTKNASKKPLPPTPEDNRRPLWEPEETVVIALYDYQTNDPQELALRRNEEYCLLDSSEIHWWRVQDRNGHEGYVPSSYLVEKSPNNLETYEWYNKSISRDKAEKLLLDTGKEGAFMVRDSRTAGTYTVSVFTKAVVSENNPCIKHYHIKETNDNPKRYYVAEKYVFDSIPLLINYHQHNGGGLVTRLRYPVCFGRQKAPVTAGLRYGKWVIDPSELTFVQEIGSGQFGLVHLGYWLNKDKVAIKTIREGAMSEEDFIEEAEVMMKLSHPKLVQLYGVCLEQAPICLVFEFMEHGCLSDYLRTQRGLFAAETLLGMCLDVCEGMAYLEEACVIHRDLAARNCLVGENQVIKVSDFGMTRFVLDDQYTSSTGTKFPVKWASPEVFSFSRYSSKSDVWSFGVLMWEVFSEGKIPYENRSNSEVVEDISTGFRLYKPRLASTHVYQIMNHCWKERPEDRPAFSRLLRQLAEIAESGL
Text: The ability of candidate compounds to interact with ITK is quantitated by a competitive binding assay using the LanthaScreen technology developed by Life Technologies. This assay is based on the binding of a proprietary, Alexa Fluor® 647-labeled, ATP-competitive kinase inhibitor (kinase tracer-236) to the ITK expression construct in the presence of a Europium-conjugated antibody, resulting in a FRET (fluorescence resonance energy transfer) signal. Displacement of the kinase tracer by compound results in a lower emission ratio upon excitation of the Europium chelate. Candidate compounds are designed as potential irreversible inhibitors of ITK, capable of ligating to an active site cysteine residue resulting in time dependent covalent binding. The time dependent nature of irreversible inhibition is investigated by performing the binding assay with and without a pre-incubation of compound and ITK. […] The inhibitory potency of candidate compounds is measured in 20 mM HEPES pH 7.5, 10 mM MgCl2, 0.01% BSA, 0.0005% Tween-20, and 2% DMSO in the presence of 10 nM ITK, 2 nM Eu-anti-GST antibody, and 50 nM kinase tracer-236 using a 384-well plate format. Background signal is defined in the absence of ITK and uninhibited signal is defined in the presence of vehicle (2% DMSO) alone. Compounds were evaluated in an 11 point dose-response ranging from 20 uM to 0.34 nM. The binding assays are performed under two preincubation conditions to evaluate time dependence of inhibition. For the pre-incubation assay, ITK and Eu-anti-GST antibody are pre-incubated with compound or vehicle for two hours prior to the addition of kinase tracer. The non-preincubated assay is run under conditions where ITK and Eu-anti-GST antibody are added to a mixture of compound and kinase tracer. IC50 values of compounds are determined using a 4 parameter logistical fit of emission ratio as a function of the concentration of compound.

[2] = test system: ITK phosphorylation of its substrate, PLCγ1, at Y783; assay: ITK target modulation assay (PLCγ1 Y783 phosphorylation, anti-CD3 stimulated Jurkat T cells); type: cell-based; conditions: anti-CD3 Dynabeads stimulation, read-out: PLC-γ Inh. IC50
Description: Target modulation was based upon the ability of a compound to inhibit ITK phosphorylation of its substrate, PLCγ1, at Y783. Human Jurkat T cells (ATCC TIB-152) were plated in V-bottom 96 well plates at 400,000 cells/well in 80 μL medium (RPMI1640 with 10% heat inactivated serum and 55 μM 2-mercaptoethanol and supplemented with glutamine/penicillin/streptomycin). Compounds were added as 10 μL of 10× working stock solutions in medium with 1% DMSO (or medium with 1% DMSO for controls) and placed in a 37° C. incubator with gentle shaking for 1 hour. Stimulation was carried out using anti-CD3 Dynabeads (Invitrogen catalog #1151D) to activate the T cell receptor and mimic antigen presenting cells. Beads were washed and resuspended in medium at 1.84×10^8 beads/ml. Beads were added rapidly to all compound containing and stimulation only wells at 10 μL/well (bead:cell=2:1) with gentle mixing of the bead source between each addition. Wells designated ‘unstimulated’ received 10 μL of media only. The plate was immediately sealed with a plate seal and cells pelleted at 400× g for 4 minutes. Media was removed using a multichannel aspirator, 25 μL of cold hypotonic lysis buffer (VWR M334-100 ml) plus 1×HALT Protease Inhibitor Cocktail (ThermoFisher #78437), 1× Phosphatase Inhibitor Cocktail 2 (Sigma Aldrich #P5726), 1× Phosphatase Inhibitor Cocktail 3 (Sigma Aldrich #P0044) and 2 mM PMSF was added per well. Cells were incubated on ice for 30 minutes to swell the cells then lysed by pipetting 20 times using a multichannel pipet. The plates were then resealed and centrifuged for 5 minutes at 400× g to pellet the cellular debris. Two μL of the soluble component of each sample was spotted onto nitrocellulose and allowed to dry for 30 minutes. Nitrocellulose was wet in 1× Tris Buffer Saline (20 mM Tris pH7.5, 150 mM NaCl) then blocked in LiCOR Odyssey Blocking Buffer (TBS) (LiCOR #927-50000) for 1 hour at room temperature with rocking. Following blocking, nitrocellulose was incubated in LiCOR Odyssey Blocking Buffer (TBS) plus 0.2% Tween20 plus anti-phospho-PLCγ1 (Y783) antibody (CST #2821S) at 1:1000 and anti-PLCγ1 (Abcam #41433) at 1:5000 with gentle rocking overnight at 4° C. Nitrocellulose was then washed four times for 5 minutes each with TBS plus 0.1% Tween20 (TBST) then incubated in LiCOR Odyssey Blocking Buffer (TBS) plus 0.2% Tween20 plus secondary antibodies IRDye 800CW (LiCOR 926-32211) and IRDye 680RD (LiCOR 926-68070) both at 1:15,000 with gentle rocking at room temperature in the dark for 1 hour. Nitrocellulose was then washed four times for 5 minutes each with TBST at room temperature in the dark. A final rinse with TBS was done prior to imaging and quantifying using the LiCOR Odyssey Imager and software respectively.

JAK3 = JAK3 (Homo sapiens (Human), UniProt P52333); assay: JAK3 enzyme activity assay (Caliper mobility shift); type: biochemical; conditions: ATP at Km level; read-out: JAK3 Inh. IC50
Sequence of JAK3 (P52333 781-1124): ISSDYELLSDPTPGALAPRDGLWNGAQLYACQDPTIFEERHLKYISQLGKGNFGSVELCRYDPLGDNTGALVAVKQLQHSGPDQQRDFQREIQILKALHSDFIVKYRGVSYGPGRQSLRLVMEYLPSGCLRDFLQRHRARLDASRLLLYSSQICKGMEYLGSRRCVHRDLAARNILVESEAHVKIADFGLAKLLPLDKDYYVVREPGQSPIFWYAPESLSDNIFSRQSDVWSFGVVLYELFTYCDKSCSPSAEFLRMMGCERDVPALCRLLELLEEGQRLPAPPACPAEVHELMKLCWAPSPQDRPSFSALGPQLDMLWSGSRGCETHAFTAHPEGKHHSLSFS
Text: The ability of candidate compounds to interact with JAK3 is quantitated by a mobility shift assay using an LC3000 instrument developed by Caliper Life Sciences. This assay is based on mobility shift electrophoresis, in which fluorescently labelled product and fluorescently labelled substrate peaks are separated and detected independently. JAK3 product/substrate separation is obtained using the following instrument settings: Pressure=−1.4 psi, Downstream voltage=−2550V and Upstream voltage=−800V. The inhibitory potency of candidate compounds of JAK3 is measured in 20 mM HEPES pH 7.5, 10 mM MgCl2, 0.01% BSA, 0.0005% Tween-20, and 2% DMSO in the presence of 2.5 nM JAK3 (Life Technologies Catalog #PV3855), […] (Anaspec Catalog #AS-64106) and […] (Km level) using a 384-well plate format. Background signal is defined in the absence of enzyme and uninhibited signal is defined in the presence of vehicle (2% DMSO) alone. Compounds were evaluated in an 11 point dose-response ranging from […] to 0.34 nM. IC50 values of compounds are determined using a 4 parameter logistical fit of emission ratio as a function of the concentration of compound.

| IC50 ([1]; Homo sapiens, PBMC) [nM] | IC50 (ITK) [nM] | IC50 ([2]; Homo sapiens, Jurkat) [nM] | IC50 (JAK3) [nM] | IC50 [1] [nM] | IC50 ([2]; Human Jurkat T cells) [nM] | Compound |
| --- | --- | --- | --- | --- | --- | --- |
| > 1000 | 10 to 100 | 100 to 1000 | 10 to 100 |  |  | C=CC(=O)N1C[C@@H](Nc2ncnc3[nH]cc([C@@H]4CC4(F)F)c23)CC[C@H]1C(C)C (single isomer, unassigned) [Example 66] |
| 100 to 1000 | ≤ 10 | ≤ 100 | ≤ 10 |  |  | C=CC(=O)N1C[C@H](Nc2ncnc3[nH]cc(C(=O)C4CCC4)c23)CC[C@@H]1C [Example 17, 1-((2S,5R)-5-((5-(cyclobutanecarbonyl)-7H-pyrrolo[2,3-d]pyrimidin-4-yl)amino)-2-methylpiperidin-1-yl)prop-2-en-1-one] |
| > 1000 | > 100 | > 1000 | 10 to 100 |  |  | C=CC(=O)N1C[C@H](Nc2ccnc3[nH]cc([C@H]4C[C@@H]4COC)c23)CC[C@@H]1C (single isomer, unassigned) [Example 76] |
|  | ≤ 10 | ≤ 100 | 10 to 100 |  |  | C[C@H]1CC[C@@H](Nc2ncnc3[nH]cc(C4CC4(F)F)c23)CN1C(=O)/C=C/CN(C)C (mixture of isomers) [Example 59, (E)-1-((2S,5R)-5-((5-(2,2-difluorocyclopropyl)-7H-pyrrolo[2,3-d]pyrimidin-4-yl)amino)-2-methylpiperidin-1-yl)-4-(dimethylamino)but-2-en-1-one] |
| 100 to 1000 | ≤ 10 | 100 to 1000 | ≤ 10 |  |  | C=CC(=O)N1C[C@H](Nc2ccnc3[nH]cc(CC4CC4)c23)CC[C@@H]1C [Example 35, 1-((2S,5R)-5-((3-(cyclopropylmethyl)-1H-pyrrolo[2,3-b]pyridin-4-yl)amino)-2-methylpiperidin-1-yl)prop-2-en-1-one] |
| 100 to 1000 |  | 100 to 1000 | ≤ 10 |  |  | C=CC(=O)N1CCC[C@@H](Nc2ncnc3[nH]cc([C@@]45CCC[C@@H]4C5(F)F)c23)C1 (single isomer, unassigned) [Example 79] |
| ≤ 100 | ≤ 10 | ≤ 100 | ≤ 10 |  |  | C=CC(=O)N1C[C@H](Nc2ncnc3[nH]cc(C4CC4(F)F)c23)CC[C@@H]1C (mixture of isomers) [Example 47, 1-((2S,5R)-5-((5-(2,2-difluorocyclopropyl)-7H-pyrrolo[2,3-d]pyrimidin-4-yl)amino)-2-methylpiperidin-1-yl)prop-2-en-1-one] |
| 100 to 1000 | ≤ 10 | 100 to 1000 | ≤ 10 |  |  | C=CC(=O)N1C[C@H](Nc2ncnc3[nH]cc([C@H]4CC4(F)F)c23)CC[C@@H]1C (single isomer, unassigned) [Example 49] |
|  | ≤ 10 |  | ≤ 10 | 100 to 1000 | ≤ 100 | C=CC(=O)N1CCC[C@@H](Nc2ncnc3[nH]cc([C@H]4C[C@@H]4COC)c23)C1 (single isomer, unassigned) [Example 26] |
| 100 to 1000 | ≤ 10 | 100 to 1000 | ≤ 10 |  |  | C=CC(=O)N1CCC[C@@H](Nc2ncnc3[nH]cc(C4(C)CC4)c23)C1 [Example 23, (R)-1-(3-((5-(1-methylcyclopropyl)-7H-pyrrolo[2,3-d]pyrimidin-4-yl)amino)piperidin-1-yl)prop-2-en-1-one] |
|  | ≤ 10 | 100 to 1000 | 10 to 100 |  |  | C=CC(=O)N1C[C@H](Nc2ncnc3[nH]cc(C(=O)C(F)(F)F)c23)CC[C@@H]1C [Example 33, 1-((2S,5R)-2-methyl-5-((5-(2,2,2-trifluoroacetyl)-7H-pyrrolo[2,3-d]pyrimidin-4-yl)amino)piperidin-1-yl)prop-2-en-1-one] |
|  | ≤ 10 |  |  |  |  | C=CC(=O)N1CCC[C@@H](Nc2ncnc3[nH]cc([C@@]45CCC[C@@H]4C5(F)F)c23)C1 (single isomer, unassigned) [Example 79, 1-((R)-3-((5-((1R,5S)-6,6-difluorobicyclo[3.1.0]hexan-1-yl)-7H-pyrrolo[2,3-d]pyrimidin-4-yl)amino)piperidin-1-yl)prop-2-en-1-one] |
| ≤ 100 | ≤ 10 | 100 to 1000 |  |  |  | C=CC(=O)N1C[C@H](Nc2ncnc3[nH]cc([C@H]4C(C)(C)C4(F)F)c23)CC[C@@H]1C (single isomer, unassigned) [Example 53] |
